According to US11084800B2 (Achillion Pharmaceuticals, Inc., priority 2017, dated 2021):

Molecular target: Human Factor D (Homo sapiens (Human), UniProt P00746)
Test: Human Factor D Assay
Type: biochemical
Conditions: Factor D inhibition, assay of Example 10; read-out: IC5 (Stars)
Method in brief: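 Serum-purified Factor D (80 nM final) preincubated 5 min at room temperature with compound in 50 mM Tris, 1 M NaCl, pH 7.5. Z-L-Lys-SBz and DTNB added at 100 μM each; A405 followed every 30 s for 30 min. IC50 from nonlinear regression of rates versus concentration.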

Sequence of Human Factor D (P00746 26-253): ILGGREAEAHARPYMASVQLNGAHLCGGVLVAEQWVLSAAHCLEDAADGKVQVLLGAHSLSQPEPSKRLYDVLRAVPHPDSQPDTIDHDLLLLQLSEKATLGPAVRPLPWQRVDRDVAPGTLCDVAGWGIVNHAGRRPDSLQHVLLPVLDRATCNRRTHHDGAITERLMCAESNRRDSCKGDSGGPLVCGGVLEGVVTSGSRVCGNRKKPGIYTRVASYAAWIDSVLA

Compound | IC50
CC(=O)c1nn(CC(=O)N2[C@H](C(=O)N[C@@H](C)c3cccc(Cl)c3F)C[C@@]3(C)C[C@@H]23)c2ccc(-c3cnc(C)nc3)cc12 [Compound 590, (1R,3S,5R)-2-(2-(3-acetyl-5-(2-methylpyrimidin-5-yl)-1H-indazol-1-yl)acetyl)-N-((S)-1-(3-chloro-2-fluorophenyl)ethyl)-5-methyl-2-azabicyclo[3.1.0]hexane-3-carboxamide] | < 1000 nM
CC(=O)c1nn(CC(=O)N2[C@H](C(=O)NCc3ccncn3)C[C@@]3(C)C[C@@H]23)c2c(C)cc(-c3cnc(C)nc3)cc12 [Compound 592, (1R,3S,5R)-2-(2-(3-acetyl-7-methyl-5-(2-methylpyrimidin-5-yl)-1H-indazol-1-yl)acetyl)-5-methyl-N-(pyrimidin-4-ylmethyl)-2-azabicyclo[3.1.0]hexane-3-carboxamide] | 1000 to 10000 nM
CC(=O)c1nn(CC(=O)N2[C@H](C(=O)N[C@@H](C)c3ccc(C)cc3)C[C@@]3(C)C[C@@H]23)c2ccc(-c3cnc(C)nc3)cc12 [Compound 598, (1R,3S,5R)-2-(2-(3-acetyl-5-(2-methylpyrimidin-5-yl)-1H-indazol-1-yl)acetyl)-5-methyl-N-((S)-1-(p-tolyl)ethyl)-2-azabicyclo[3.1.0]hexane-3-carboxamide] | 1000 to 10000 nM
CC(=O)c1nn(CC(=O)N2[C@H](C(=O)N[C@@H](C)c3cccc(Cl)c3)C[C@@]3(C)C[C@@H]23)c2ccc(-c3cnc(C)nc3)cc12 [Compound 599, (1R,3S,5R)-2-(2-(3-acetyl-5-(2-methylpyrimidin-5-yl)-1H-indazol-1-yl)acetyl)-N-((S)-1-(3-chlorophenyl)ethyl)-5-methyl-2-azabicyclo[3.1.0]hexane-3-carboxamide] | < 1000 nM
CC(=O)c1nn(CC(=O)N2[C@H](C(=O)N[C@@H](C)c3ccccc3F)C[C@@]3(C)C[C@@H]23)c2ccc(-c3cnc(C)nc3)cc12 [Compound 600, (1R,3S,5R)-2-(2-(3-acetyl-5-(2-methylpyrimidin-5-yl)-1H-indazol-1-yl)acetyl)-N-((S)-1-(2-fluorophenyl)ethyl)-5-methyl-2-azabicyclo[3.1.0]hexane-3-carboxamide] | < 1000 nM
CC(=O)c1nn(CC(=O)N2[C@H](C(=O)N[C@H](C)c3cccc(Cl)c3F)C[C@@]3(C)C[C@@H]23)c2ccc(-c3cnc(C)nc3)cc12 [Compound 601, (1R,3S,5R)-2-(2-(3-acetyl-5-(2-methylpyrimidin-5-yl)-1H-indazol-1-yl)acetyl)-N-((R)-1-(3-chloro-2-fluorophenyl)ethyl)-5-methyl-2-azabicyclo[3.1.0]hexane-3-carboxamide] | < 1000 nM
CC(=O)c1nn(CC(=O)N2[C@H](C(=O)NCCC3CCOCC3)C[C@@]3(C)C[C@@H]23)c2c(C)cc(-c3cnc(C)nc3)cc12 [Compound 606, (1R,3S,5R)-2-(2-(3-acetyl-7-methyl-5-(2-methylpyrimidin-5-yl)-1H-indazol-1-yl)acetyl)-5-methyl-N-(2-(tetrahydro-2H-pyran-4-yl)ethyl)-2-azabicyclo[3.1.0]hexane-3-carboxamide] | 1000 to 10000 nM
CC(=O)c1nn(CC(=O)N2[C@H](C(=O)NCCN3CCOCC3)C[C@@]3(C)C[C@@H]23)c2c(C)cc(-c3cnc(C)nc3)cc12 [Compound 607, (1R,3S,5R)-2-(2-(3-acetyl-7-methyl-5-(2-methylpyrimidin-5-yl)-1H-indazol-1-yl)acetyl)-5-methyl-N-(2-morpholinoethyl)-2-azabicyclo[3.1.0]hexane-3-carboxamide] | 1000 to 10000 nM

Same assay, conditions: Table 6; Factor D 80 nM, substrate Z-L-Lys-SBz; read-out: IC50

Compound | IC50
(1R,3S,5S)-2-(2-(3-Acetyl-5-(2-methylpyrimidin-5-yl)-1H-indazol-1-yl)acetyl)-N-(6-bromo-3-(methoxymethyl)pyridin-2-yl)-5-(methoxymethyl)-2-azabicyclo[3.1.0]hexane-3-carboxamide [Compound 49] | < 1000 nM
